Experiments:
[1] = system: GFAP; experiment: GFAP immunohistochemistry in icv streptozotocin-induced Alzheimer's disease model; type: in vivo; conditions: icv-STZ mice, oral once daily day 0 to day 14; betahistine 30 and 100 mg/kg, donepezil 0.5 mg/kg; compared with Vehicle group; FIG. 3
Description: (§1) Seven-week-old male C57BL/6 mice were obtained from Japan SLC, (Japan). The animals were maintained in a SPF facility under controlled conditions of temperature (23±2° C.), humidity (45±10%), lighting (12-hour artificial light and dark cycles; light from 8:00 to 20:00) and air exchange. On day 0 and day 2, 60 mice were anesthetized with pentobarbital sodium (Kyoritsu Seiyalu, Japan) and intracerebroventricularly (icy) administered two doses of streptozotocin (STZ, Sigma-Aldrich, USA) in saline at a dose of 3 mg/kg. The icv-STZ-induced Alzheimer's disease model mice were divided into 6 groups of 10 mice based on their body weight on the day before the start of the treatment.

[2] = system: MAP2; experiment: MAP2 mRNA expression by quantitative RT-PCR in icv streptozotocin-induced Alzheimer's disease model; type: in vivo, mice; conditions: for Expression levels of MAP2 gene (Mean ± SD): relative mRNA normalized to GAPDH, Vehicle 1.0 ± 0.4
Description: as §1
Expression levels of MAP2, a cytoskeletal modulator that has been implicated in the pathogenesis of Alzheimer's disease and a member of MAP2/tau family, was measured by quantitative RT-PCR. Total RNA was extracted from brain samples using RNAiso (Takara Bio, Japan) according to the manufacturer's instructions. One μg of RNA was reverse-transcribed using a reaction mixture containing 4.4 mM MgCl2 (F. Hoffmann-La Roche, Switzerland), 40 U RNase inhibitor (Toyobo, Japan), 0.5 mM dNTP (Promega, USA), 6.28 μM random hexamer (Promega), 5× first strand buffer (Promega), 10 mM dithiothreitol (Invitrogen, USA) and 200 U MMLV-RT (Invitrogen) in a final volume of 20 μL. The reaction was carried out for 1 hour at 37° C., followed by 5 minutes at 99° C. Real-time PCR was performed using real-time PCR DICE and SYBR premix Taq (Takara Bio). To calculate the relative mRNA expression level, the expression of each gene was normalized to that of reference gene GAPDH.

[3] = system: primary rat mixed cortical cultures; experiment: Aβ1-42-induced cell death (LDH release) in primary mixed cortical cultures; type: cell-based; conditions: 37° C., 5% CO2, 72 hours, varied concentrations, FIG. 1
Description: Mixed cortical cultures are prepared from E18 Wistar rat embryos. The cortices are dissected out and tissue cut into small pieces. The cells are separated by 15-min incubation with DNase and papain. The cells are collected by centrifugation (1500 rpm, 5 min). […] After 3-4 h, the medium is changed to MEM (2 g/L glucose) supplemented with 2 mM glutamine, 10 μg/mL gentamicin, 5% HS-HI. After three days in vitro, medium containing MEM (Minimum Essential Media) (2 g/L glucose) supplemented with glutamine, gentamicin and 5% […] is changed to the cells. On day 6 in vitro, the unwanted cell division is inhibited by adding cytosine arabinoside (10 μM final concentration) for 24 h. The cultures refed with MEM (2 g/L glucose) supplemented with glutamine, gentamicin and 5% HS-HI before experiments. Aß1-42 Exposure The wells in good shape are chosen for experiment on day 10 in vitro. Test compounds are diluted in MEM (2 g/L glucose) supplemented with L-glutamine, gentamicin, and 5% HS-HI. […] The absorbance at 340 nm is measured immediately using a 3-min kinetic measurement protocol in Multiskan FC ELISA reader (Thermo, Finland). The change in absorbance/min is determined, which is directly proportional to the released LDH (=cell death).

[4] = target: histamine H3 receptors (Homo sapiens, UniProt Q9Y5N1); conditions: general statement in description; cited from earlier work
Chain of histamine H3 receptors (Q9Y5N1 whole entry): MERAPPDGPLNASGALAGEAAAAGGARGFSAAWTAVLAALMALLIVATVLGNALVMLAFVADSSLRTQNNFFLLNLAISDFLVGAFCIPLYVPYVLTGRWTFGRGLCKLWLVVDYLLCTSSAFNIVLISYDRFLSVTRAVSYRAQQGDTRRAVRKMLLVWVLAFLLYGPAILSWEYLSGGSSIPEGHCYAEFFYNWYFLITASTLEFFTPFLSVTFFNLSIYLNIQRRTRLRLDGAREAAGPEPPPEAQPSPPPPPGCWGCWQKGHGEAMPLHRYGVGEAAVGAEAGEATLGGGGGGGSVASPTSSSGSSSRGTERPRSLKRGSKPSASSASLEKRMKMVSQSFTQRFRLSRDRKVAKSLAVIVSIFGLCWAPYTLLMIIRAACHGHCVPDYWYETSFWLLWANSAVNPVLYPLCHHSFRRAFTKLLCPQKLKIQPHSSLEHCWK

[5] = system: APPSwDI/NOS2−/− mice; experiment: Contextual Fear Conditioning test in APPSwDI/NOS2−/− transgenic mice; type: in vivo; conditions: once-a-day p.o., after two months of treatment, vs vehicle, FIG. 2
Description: -/- are double transgenic mice which display […] spatial memory, neuronal loss and neurofibrillary tangle like pathology. […] Treatment was continued for 2.5 months. After two months of treatment, starting at the age of 14.5 months the mice were subjected to Contextual Fear Conditioning (CFC) test. The test was performed as follows Training consisted of placing a mouse in a chamber, bright house light on, and allowing exploration for 2 min. Afterward an auditory cue (1700 Hz, 80 dB, conditioned stimulus (CS)) was presented for 15 s. A 2 s foot shock (1.5 mA; unconditioned stimulus (US)) was administered for the final 2 s of the CS. This procedure was repeated, and the mouse was removed from the chamber 30 s later. Twenty hours (±30 min) after the training, the mouse was returned to the same chamber in which the training occurred (memory for context), and freezing behavior was recorded by a computerized camera tracking system. The automated Freeze Frame system, which digitized the video signal at 4 Hz and compared movement of the mouse frame by frame, was used to score the amount of freezing. At the end of the 5 min context test, the mouse was returned to its home cage. Freezing scores for each subject were expressed as a percentage for memory for context.

Structure (SMILES) | GFAP-positive area [1] | Expression levels of MAP2 gene (Mean ± SD) ([2]; Donepezil 0.5 mg/kg p.o. once daily day 0-14, n = 10) | protective effect against Aβ 1-42-induced cell death [3] | affinity as an antagonist for histamine H3 receptors [4] | Freezing score (memory for context) [5] | Expression levels of MAP2 gene (Mean ± SD) ([2]; Betahistine high dose (100 mg/kg p.o. once daily day 0-14), n = 10) | Expression levels of MAP2 gene (Mean ± SD) ([2]; Betahistine low dose (30 mg/kg p.o. once daily day 0-14), n = 10) | MAP2 mRNA expression (in words) ([2]; icv-STZ mice brain, oral once daily day 0 to day 14, normalized to GAPDH)
COc1cc2c(cc1OC)C(=O)C(CC1CCN(Cc3ccccc3)CC1)C2 (stereo not drawn) [Donepezil, donepezil] | significant decreases | 0.7 ± 0.2 | – | – | – | – | – | –
CNCCc1ccccn1 [Betahistine] | significant decreases | – | profound protective effect | very strong affinity | improved freezing score | 0.7 ± 0.2 | 0.7 ± 0.2 | significant down regulation
